Test results: ChEMBL document CHEMBL1139678, “Design and synthesis of novel N-sulfonyl-2-indole carboxamides as potent PPAR-gamma binding agents with potential application to the treatment of osteoporosis” (Bioorg Med Chem Lett, 2006)
In brackets after ≈: the same amount, converted by molar mass. Activity calls are given as the source filed them. No cut-off for these calls is given here.

Columns and labels:
Osteoblast = assay: Induction of osteoblast differentiation assessed as stimulation of alkaline phosphatase in MC3T3-E1 cells; format: functional, cell-based; conditions: Mus musculus
[1] = biological target: T1, Peroxisome proliferator-activated receptor gamma (Homo sapiens, UniProt P37231); assay: Displacement of Fluormone from PPAR gamma
T1 sequence (P37231 whole entry): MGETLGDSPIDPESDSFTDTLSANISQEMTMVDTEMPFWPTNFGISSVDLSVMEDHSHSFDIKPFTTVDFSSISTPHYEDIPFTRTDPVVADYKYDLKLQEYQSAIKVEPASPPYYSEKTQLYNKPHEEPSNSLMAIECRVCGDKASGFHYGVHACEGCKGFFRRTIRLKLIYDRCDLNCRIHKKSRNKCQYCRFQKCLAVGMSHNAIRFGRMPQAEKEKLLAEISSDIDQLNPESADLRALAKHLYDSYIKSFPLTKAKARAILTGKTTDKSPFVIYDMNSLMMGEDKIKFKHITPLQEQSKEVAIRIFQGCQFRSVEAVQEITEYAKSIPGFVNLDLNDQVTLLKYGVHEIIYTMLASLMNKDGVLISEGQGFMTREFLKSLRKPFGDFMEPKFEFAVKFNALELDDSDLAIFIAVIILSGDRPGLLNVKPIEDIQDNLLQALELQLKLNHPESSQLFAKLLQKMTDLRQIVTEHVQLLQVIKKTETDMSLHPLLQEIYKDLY

[2] = Solubility of the compound; format: physicochemical

SMILES	IC50 [1]	further results
CN(CCOc1ccc(CC2SC(=O)NC2=O)cc1)c1ccccn1 (configuration not stated)	–	Activity (Osteoblast): inactive
CS(=O)(=O)NC(=O)c1cc2ccccc2n1Cc1cccc(C(F)(F)F)c1	680 nM	–
O=C(NS(=O)(=O)c1cccc(C(F)(F)F)c1)c1cc2ccccc2n1C(=O)c1cccc(C(F)(F)F)c1	9400 nM	–
O=C(NS(=O)(=O)c1ccccc1C(F)(F)F)c1cc2ccccc2n1Cc1cccc(C(F)(F)F)c1	80 nM	–
O=C(NS(=O)(=O)c1ccc(Cl)cc1)c1cc2ccccc2n1Cc1cccc(C(F)(F)F)c1	280 nM	EC50 (Osteoblast): 1000 nM
O=C(NS(=O)(=O)c1ccc2ccccc2c1)c1cc2ccccc2n1Cc1cccc(C(F)(F)F)c1	90 nM	–
COC(=O)c1ccccc1S(=O)(=O)NC(=O)c1c(-c2ccc(OC)cc2)c2ccccc2n1Cc1cccc(C(F)(F)F)c1	1 nM	EC50 (Osteoblast): 1000 nM
O=C(NS(=O)(=O)c1cccc(C(F)(F)F)c1)c1cc2ccccc2n1Cc1cccc(OCc2ccccc2)c1	50 nM	–
O=C(NS(=O)(=O)c1ccc(Cl)s1)c1cc2ccccc2n1Cc1cccc(C(F)(F)F)c1	80 nM	–
COc1ccc(-c2c(C(=O)NS(=O)(=O)c3ccccc3)n(Cc3cccc(C(F)(F)F)c3)c3ccccc23)cc1	–	EC50 (Osteoblast): 100 nM; solubility [2]: 5 µg/mL (≈ 8.86 µM)
O=C(NS(=O)(=O)c1ccc(F)cc1)c1cc2ccccc2n1Cc1cccc(C(F)(F)F)c1	720 nM	–
CCn1c(C(=O)NS(=O)(=O)c2cccc(C(F)(F)F)c2)cc2ccccc21	2440 nM	–
O=C(NS(=O)(=O)c1cccc(C(F)(F)F)c1)c1cc2cc(O)ccc2n1Cc1cccc(C(F)(F)F)c1	540 nM	–
O=C(NS(=O)(=O)c1cccc(C(F)(F)F)c1)c1cc2cc(OCc3ccccc3)ccc2n1Cc1cccc(C(F)(F)F)c1	770 nM	–

Further lines, with some results ahead:

IC50 [1]	SMILES	further results
330 nM	O=C(NS(=O)(=O)c1cccc(C(F)(F)F)c1)c1cc2cc(Cl)ccc2n1Cc1cccc(C(F)(F)F)c1	–
7 nM	COc1ccc(-c2c(C(=O)NS(=O)(=O)c3ccccc3C)n(Cc3cccc(C(F)(F)F)c3)c3ccccc23)cc1	–
140 nM	COc1cccc(Cn2c(C(=O)NS(=O)(=O)c3cccc(C(F)(F)F)c3)cc3ccccc32)c1	–
290 nM	Cc1ccc(S(=O)(=O)NC(=O)c2cc3ccccc3n2Cc2cccc(C(F)(F)F)c2)cc1	–
7 nM	COc1ccc(-c2c(C(=O)NS(=O)(=O)c3ccc(F)cc3)n(Cc3cccc(C(F)(F)F)c3)c3ccccc23)cc1	–
80 nM	O=C(NS(=O)(=O)c1cccc(C(F)(F)F)c1)c1cc2ccccc2n1Cc1cccc(C(F)(F)F)c1	–
290 nM	O=C(NS(=O)(=O)c1ccccc1)c1cc2ccccc2n1Cc1cccc(C(F)(F)F)c1	–
90 nM	O=C(NS(=O)(=O)c1cccc(C(F)(F)F)c1)c1cc2ccccc2n1Cc1cccc(OC(F)(F)F)c1	–
380 nM	O=C(NS(=O)(=O)c1cccc(C(F)(F)F)c1)c1cc2ccccc2n1Cc1cc(Cl)ccc1Cl	–
60 nM	COc1ccc(-c2c(C(=O)NS(=O)(=O)c3cccc(C(F)(F)F)c3)n(Cc3cccc(C(F)(F)F)c3)c3ccccc23)cc1	–
2 nM	COc1ccc(-c2c(C(=O)NS(C)(=O)=O)n(Cc3cccc(C(F)(F)F)c3)c3ccccc23)cc1	–
280 nM	O=C(NS(=O)(=O)c1cccc(C(F)(F)F)c1)c1cc2ccccc2n1Cc1ccccc1	–
330 nM	CC(C)(C)c1ccc(Cn2c(C(=O)NS(=O)(=O)c3cccc(C(F)(F)F)c3)cc3ccccc32)cc1	–
400 nM	O=C(NS(=O)(=O)c1cccc(C(F)(F)F)c1)c1cc2ccccc2n1Cc1ccc(C(F)(F)F)cc1	–
180 nM	Cc1ccccc1S(=O)(=O)NC(=O)c1cc2ccccc2n1Cc1cccc(C(F)(F)F)c1	–
